Assay results published in US20090220421A1, “METHOD FOR SCREENING MTP-INHIBITING COMPOUNDS” (priority 2005, published 2009).

Columns and labels:
[1] = tested on: secretion of VLDL; test: Test Avivo: duration of action of MTP inhibitors on the secretion of VLDL; assay type: in vivo, fatty fa/fa Zucker rats; conditions: between 6 and 8 hours after treatment
Protocol: Determination of the Duration of Action of MTP Inhibitors on the Secretion of VLDL
This test makes it possible to evaluate the kinetics of inhibition of MTP-inhibiting compounds on the secretion of VLDL in fatty fa/fa Zucker rats (10-12 weeks old), which is an animal model characterised by hypersecretion of VLDL. The intensity and duration of inhibition are measured via the triton technique described above over a period ranging up to 8 hours after administration of the products. Since the duration of action of a product depends both of the administered dose and on its intrinsic characteristics, it is determined at a dose of makes it possible to reach a maximum inhibition (Imax) of at least 50% over a significant time interval. The comparison of the profile of duration of action of two compounds that may have different potentials is thus performed at respective doses that allow similar Imax values to be obtained.

[2] = Test D: metabolisation/inactivation of the product in rodent liver microsomes; assay type: in vitro ADME; conditions: 0.5 mg/ml microsomes, 10 μM test product, 1 hour at 37° C., disappearance of parent by LC/MS/MS
Protocol: Metabolisation/Inactivation of the Product
The products are evaluated for their capacity to be inactivated rapidly in vitro. […] The incubation medium is prepared by mixing together the following constituents: NAD (1 mM), glucose 6 phosphate (5 mM), NADP (1 mM), glucose 6 phosphate dehydrogenase (1 IU/ml), bovine serum albumin (1 mg/ml), TRIS (10 mM pH=7.6), MgCl2 (5 mM).
A concentration of 0.5 mg/ml of microsomes (Biopredic) is placed in contact with 10 μM of test product. The mixture is incubated for 1 hour at 37° C. A fraction of the preparation is taken at the initial time, to which is added an equivalent volume of ethanol (quenching of the reaction by precipitation of the proteins). The same operation is repeated after 1 hour of incubation.
The samples obtained are centrifuged at 4000 rpm for 10 minutes, and the supernatant is analysed by LC/MS/MS. The percentage of disappearance of the parent product between T0 and T60 minutes is determined by calculating the areas of the chromatographic peaks.
(§1) Potential metabolites M1 and M2 (of the compounds 1 or 2, respectively) are identified, resynthesised and evaluated for their MTP-inhibiting activity.

[3] = tested on: secretion of VLDL (hepatic MTP); test: Test F: inhibition of secretion of VLDL in rats (triton technique); assay type: in vivo, Male Wistar rats; conditions: 100 mg/kg orally, between 1 hour and 6 hours after treatment, relative to controls
Protocol: Inhibition of Secretion of VLDL in Rats:
The inhibition of hepatic MTP by compounds 1 and 2 was evaluated from their impact on the secretion of very low density lipoproteins (VLDLs). Male Wistar rats (220-280 g) receive a standard diet and water ad libitum. On the day of the experiment, the animals (n=7) are fasted and, one hour later, are treated with the compounds (100 mg/kg orally; excipient 0.5% methylcellulose). The secretion of VLDL is measured one hour after treatment, and for 5 hours, via the triton technique (WR 1339). When it is injected into the bloodstream, triton (400 mg/kg) prevents the catabolism of the VLDLs by inhibiting their lipolysis via lipoprotein lipase and by inhibiting their uptake by tissues. Measurement of the accumulation of triglycerides (TG) and of cholesterol, which is a component of VLDLs, thus makes is it possible to reveal the secretion of VLDL by the liver.
The effect of the product on the secretion of VLDL is thus evaluated between 1 hour and 6 hours after treatment at a dose of 100 mg/kg, i.e. between 0 and 5 hours after the intravenous injection of triton. Blood samples are taken at regular intervals under gaseous anaesthesia, to assay of the triglycerides and the cholesterol. […] The levels of inhibition relative to controls not treated with the compounds are determined, and the results are collated in Table V.

[4] = tested on: secretion of apoB by HepG2 cells; test: Test Avitro: kinetics (reversibility) of inhibition of secretion of apoB by HepG2 cells; assay type: cell-based, human
Protocol: Analyse of the Kinetics (Reversibility) of Inhibition of Secretion of apoB by HepG2 Cells:
HepG2 cells are placed in contact with the products as described in the preceding paragraph and the secretion of ApoB is measured after 6 and 24 hours. The comparison is made at equipotent dose for the inhibition of secretion of apoB after 24 hours.
Next, the products are removed from the culture medium (during changes of the medium at 0, 6, 24 and 48 hours) and the secretion of ApoB is again measured to determine the kinetics for return to normal secretion. The reversibility is judged satisfactory if the secretion, 24 hours after removal of the products, has a value greater than or equal to 70% of that of the controls (blank cells without compound).

[5] = molecular target: T1, MTP (Mesocricetus auratus, UniProt P55158); test: Test D: MTP-inhibiting activity of the resynthesised metabolites; assay type: biochemical; conditions: MTP-inhibiting activity of metabolites M1, M2 of the compound
T1 sequence (P55158 19-895): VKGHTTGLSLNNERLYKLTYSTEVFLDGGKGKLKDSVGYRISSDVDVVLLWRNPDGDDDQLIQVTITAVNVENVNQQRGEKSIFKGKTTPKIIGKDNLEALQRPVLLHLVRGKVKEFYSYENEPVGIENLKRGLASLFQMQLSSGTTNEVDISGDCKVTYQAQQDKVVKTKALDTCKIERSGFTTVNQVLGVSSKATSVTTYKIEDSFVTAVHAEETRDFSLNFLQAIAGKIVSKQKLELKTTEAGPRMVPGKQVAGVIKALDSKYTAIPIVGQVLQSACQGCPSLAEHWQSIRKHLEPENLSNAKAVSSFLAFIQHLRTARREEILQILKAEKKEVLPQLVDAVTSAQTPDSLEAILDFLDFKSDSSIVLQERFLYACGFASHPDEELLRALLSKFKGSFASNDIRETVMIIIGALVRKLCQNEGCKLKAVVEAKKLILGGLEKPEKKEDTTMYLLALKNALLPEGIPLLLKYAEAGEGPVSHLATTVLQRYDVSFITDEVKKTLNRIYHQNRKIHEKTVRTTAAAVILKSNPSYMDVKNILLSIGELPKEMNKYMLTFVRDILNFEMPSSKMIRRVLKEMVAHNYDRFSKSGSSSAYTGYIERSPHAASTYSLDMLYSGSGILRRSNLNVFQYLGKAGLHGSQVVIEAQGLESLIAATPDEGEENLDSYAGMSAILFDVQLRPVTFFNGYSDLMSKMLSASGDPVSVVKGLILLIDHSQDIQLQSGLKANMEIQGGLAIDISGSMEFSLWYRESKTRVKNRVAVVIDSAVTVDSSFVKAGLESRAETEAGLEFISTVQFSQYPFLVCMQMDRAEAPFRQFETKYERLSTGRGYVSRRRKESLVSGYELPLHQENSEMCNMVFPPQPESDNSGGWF
Excerpt: Thus, Test A may also be preceded or followed, preferably followed, by one or more tests of inhibition of MTP and/or of inhibition of the secretion of VLDLs and/or of inhibition of the secretion of apoB, which are similar or even identical to the Tests B and/or C, respectively, defined above, but performed this time on the plasmatic metabolites of the candidate compounds. These tests on the metabolites will be referred to hereinbelow as Test D (metabolites/MTP inhibition test) and Test E (metabolites/apoB inhibition test).
as §1

[6] = tested on: apoB secretion in HepG2 cells; test: Test C: inhibition of apoB secretion in the HepG2 human cell line (sandwich ELISA); assay type: cell-based; conditions: 24 hours incubation, read-out: IC50 (concentration that produces a 50% inhibition of apoB secretion in the HepG2 cells)
Protocol: Qualitative Analysis of the Secretion of apoB in the HepG2 Human Cell Line
The activity of a compound may be evaluated by measuring the inhibition of apoB secretion in HepG2 cells.
The HepG2 cells (ECACC-No. 85011430) are used as model in the study of the in vitro hepatic secretion of lipoproteins, as described by Dixon J. and Ginsberg H. (J. Lipid. Res., (1993), 34, 167-179).
The HepG2 cells are cultured in Dulbecco's modified Eagle's medium comprising 10% foetal calf serum (DMEM and FBS-Gibco) in 96-well plates under an atmosphere of 5% carbon dioxide for 24 hours (about 70% confluence).
The test compounds are dissolved at a concentration of 2 or 10 mM in dimethyl sulfoxide (DMSO). Serial dilutions (1:3.16) are made in DMSO and are added (1:200—Robot Multimek Beckman) to the growth medium (200 μl) and then finally incubated for 24 hours in the various wells containing the HepG2 cells.
The 24-hour culture supernatant diluted to 1:5 (phosphate-buffered saline: PBS comprising 1% bovine serum albumin) is tested according to a sandwich-ELISA method specific for human apoB.
The results, presented in Table II below for compounds 1 and 2, are expressed in terms of IC50, i.e. the concentration that produces a 50% inhibition of apoB secretion in the HepG2 cells.

[7] = molecular target: T2, microsomal triglyceride transfer protein (MTP) (Mesocricetus auratus, UniProt P55158); test: Test B: qualitative analysis of the inhibition of MTP activity in vitro (labelled triglyceride transfer, SPA); assay type: biochemical, golden hamster; conditions: [3H]-triolein transfer from liposomes to LDL-biot, 18-24 hours at 37° C.; read-out: IC50 (concentration that allows a 50% inhibition of MTP)
T2 construct: The supernatant comprising the soluble MTP is dialysed; from tissue; host or cells: golden hamster liver microsomes, deoxycholate-solubilised supernatant
T2 sequence (P55158 19-895): T1 sequence (P55158 19-895)
Protocol: Qualitative Analysis of the Inhibition of Mtp Activity In Vitro
The inhibition of the activity of microsomal triglyceride transfer protein (MTP) was tested by using the following operating protocol.
The inhibition of MTP activity with a compound may be quantified by observing the inhibition of the transfer of a labelled triglyceride, from a donor particle to an acceptor particle, in the presence of MTP. The procedure for the preparation of MTP is based on the method by Wetterau and Zilversmit (Biochem. Biophys. Acta (1986) 875, 610). A few grams of golden hamster liver are taken and then rinsed several times in a 250 mM sucrose solution at 0° C. All the following steps proceed at +4° C. […]
The reaction mixture is prepared in untreated ½ well white plates (Corning Costar) by addition, in the following order, of: 5 μl of HEPES 50 mM, NaCl 150 mM, BSA 0.1% (w/v), 0.05% sodium azide (w/v), pH 7.4 buffer; 5 μl of liposomes; 5 μl of LDL-biot; 5 μl of test products in DMSO 5 μl of MTP. After incubation for 18-24 hours at 37° C., the reaction is stopped by adding 100 μl of Amersham SPA (Scintillation Proximity Assay) beads coupled to streptavidin, and the radioactivity is counted using a Top Count (Packard) machine at least one hour later. The inhibition of the transfer of the triglycerides with a compound is reflected by a reduction in the transferred radioactivity. […]

O=C(NC1CCN(Cc2cccnc2)CC1)c1ccccc1-c1ccc(C(F)(F)F)cc1 [Compound 1]
residual inhibition of VLDL secretion [1]: absence of significant residual inhibition
Metabolisation (%/hour) [2]: 88 %/hour
Inhibition of secretion of VLDL-TG [3]: −56%
Inhibition of secretion of VLDL-cholesterol [3]: −45%
Secretion of apoB 24 hours after removal of the products (% of the controls) [4]: >85%
Activity of the metabolites [5]: M1, M2 inactive
IC50 [6]: 18 nM
IC50 [7]: 320 nM
